Data published in US9012481B2, “Benzoarylureido compounds, and composition for prevention or treatment of neurodegenerative brain disease containing the same” (Korea Institute of Science and Technology, priority 2009, dated 2015).
Where two headings read alike, the source gives them in different places.

What was measured:
BV-2 cells = experiment: Cell viability (MTT analysis) of beta-amyloid treated BV-2 cells; type: cell-based; conditions: Mus musculus, BV-2 cells, average of three experiments; for viability at 0.1 µM: compound 100 nM for 24 hours after 50 μM beta-amyloid for 2 hours; for viability at 1 µM: compound 1000 nM for 24 hours after 50 μM beta-amyloid for 2 hours; for viability at 0.5 µM: BV-2, read-out: cell viability by MTT analysis, compound 500 nM for 24 hours after 50 μM beta-amyloid for 2 hours
Method: Beta-amyloid (Aβ25-35, Sigma Chemical Co., St. Louis, Mo., USA) was diluted with aseptic desalted water and preservative solution (1 mM, GIBCO), and kept in aliquots at −70° C. To the treatment of beta-amyloid, beta-amyloid preservative solution was diluted to desired concentrations in a treatment medium (DMEM, GIBCO). The reagents were newly provided as a preservative solution (10 mM) under DMSO (dimethylsulfoxide), and diluted in treatment medium to desired concentrations.
BV-2 microglia cells (allotted from Pharmacology Division of Ajou University) were cultivated in DMEM (Dulbecco's Modified Eagle's Medium) supplemented with 5% fetal bovine serum (Invitrogen, Carlsbad, Calif., USA), sou/Ml penicillin (Invitrogen, Carlsbad, Calif., USA), and 50 μg/Ml streptomycin (Invitrogen, Carlsbad, Calif., USA) under the atmosphere condition with 5% CO2 and 95% air at 37° C. The medium was replaced once a day, the cells were plate-cultured in a density according to the scale of each experiment.
BV-2 cells were plate-cultured in 96-well plate at the density of 5×10^4, the cell viability was measured according to a conventional MTT analysis method and lactate dehydrogenase (LDH) analysis method. The MTT analysis depends on the metabolism ability of mitochondria of living cell, and reflexes intracellular redox states. The cultured cells were treated with MTT a solution (final concentration: 1 mg/Ml) for 4 hours. Deep blue formazan crystal generated in the original cells was dissolved in a lysis buffer, and then, the absorbance was detected at 595 nm with microplate reader. The LDH activity released from the culture medium was detected, which was evaluated as a cell death index. The culture medium was added to a reagent (test, Sigma Chemical Co, St. Louis, Mo., USA) containing sodium lactate, NADH and sodium pyruvate, and then, the absorbance reduction by NADH at 340 nm was measured. The result was calculated assuming that the LDH activity in homogenate solution of the non-treated control is 100%.
[…] For microscope analysis, BV-2 cells were used in 6-well plate at the density of 5×10^5 cells/well, for MTT analysis, BV-2 cells were used in 96-well plate at the density of 5×10^4 cells/well.
The obtained prevention effects of KHG25967 compound on toxicity induced by beta-amyloid in BV-2 cells were FIGS. 1A and 1b.
For MTT analysis, BV-2 cells were used on 96-well plate in the density of 5×10^4 cells/well. The quantitative analysis results (unit: %) for the cell viability obtained by MTT analysis were shown in Table 2, wherein the values are represented by the average of three experiments per each concentration.

[1] = compound 50 μM for 24 hours after 50 μM beta-amyloid for 2 hours, read-out: cell viability by MTT analysis

Compound	viability at 50 µM (BV-2 cells; [1]) [%]	melting point [°C]	also measured
Cc1ccc(CNC(=O)Nc2nc3ccccc3s2)cc1 [KHG25948, 1-(benzo[d]thiazole-2-yl)-3-(4-methylbenzyl)urea]	30	257	
CCCCOC(=O)CNC(=O)Nc1nc2ccccc2s1 [KHG25954, butyl 2-(3-benzo[d]thiazole-2-ylureido)acetate]	48	294	
CCOC(=O)CNC(=O)Nc1nc2ccc(F)cc2s1 [KHG25956, ethyl 2-(3-(6-fluorobenzo[d]thiazole-2-yl)ureido)acetate]	36	291	
CCOC(=O)CNC(=O)Nc1nc2ccc(Cl)cc2o1 [KHG25989, ethyl 2-(3-(6-chlorobenzo[d]oxazole-2-yl)ureido)acetate]	55		
Cc1ccc(CNC(=O)Nc2nc3ccc(Cl)cc3o2)cc1 [KHG25990]	37		
CCOC(=O)CCCNC(=O)Nc1nc2ccccc2s1 [KHG26004, ethyl 4-(3-benzo[d]thiazole-2-ylureido)butanoate]	37	278	
CCOC(=O)CCNC(=O)Nc1nc2ccccc2s1 [KHG26005, ethyl 3-(3-benzo[d]thiazole-2-ylureido)propanoate]	40	256	
CCOC(=O)CNC(=O)Nc1nc2ccc(OC)cc2s1 [KHG26019, ethyl 2-(3-(6-methoxybenzo[d]thiazole-2-yl)ureido)acetate]	47	281.9	
O=C(O)CCCNC(=O)Nc1nc2ccccc2s1 [KHG26025, 4-(3-benzo[d]thiazole-2-ylureido)butanoic acid]	90	210	viability at 0.1 µM (BV-2 cells): 73%; viability at 1 µM (BV-2 cells): 89%
O=C(O)CCNC(=O)Nc1nc2ccccc2s1 [KHG26026, 3-(3-benzo[d]thiazole-2-ylureido)propanic acid]	82	243	viability at 0.1 µM (BV-2 cells): 66%; viability at 1 µM (BV-2 cells): 85%
CCOC(=O)CCNC(=O)Nc1nc2ccccc2[nH]1 [KHG26027, ethyl 3-(3-1H-benzo[d]imidazole-2-ylureido)propanoate]	45	264	
CCOC(=O)CCCNC(=O)Nc1nc2ccccc2[nH]1 [KHG26028, ethyl 4-(3-1H-benzo[d]imidazole-2-ylureido)butanoate]	34	277	
CCOC(=O)CNC(=O)Nc1nc2ccccc2n1C [KHG26029, ethyl 2-(3-(1-methyl-1H-benzo[d]imidazole-2-yl)ureido)acetate]	70	157	viability at 0.1 µM (BV-2 cells): 86%; viability at 1 µM (BV-2 cells): 73%
CCOC(=O)CCNC(=O)Nc1nc2ccccc2n1C [KHG26030, ethyl 3-(3-(1-methyl-1H-benzo[d]imidazole-2-yl)ureido)propanoate]	75	105	viability at 0.1 µM (BV-2 cells): 60%; viability at 1 µM (BV-2 cells): 76%
CCOC(=O)CCCNC(=O)Nc1nc2ccccc2n1C [KHG26031, ethyl 4-(3-(1-methyl-1H-benzo[d]imidazole-2-yl)ureido)butanoate]	56	81	
O=C(O)CNC(=O)Nc1nc2ccccc2s1 [KHG26096, potassium 2-(3-benzo[d]thiazole-2-ylureido)acetate]			viability at 0.5 µM (BV-2 cells): 72%
Cn1c(NC(=O)NCC(=O)[O-])nc2ccccc21.[K+] [KHG26172, potassium 2-(3-(1-methyl-1H-benzo[d]imidazole-2-yl)ureido)acetate]		229	viability at 0.5 µM (BV-2 cells): 68%
COc1ccc2nc(NC(=O)NCC(=O)O)sc2c1 [KHG26175, potassium 2-(3-(6-methoxybenzo[d]thiazole-2-yl)ureido)acetate]			viability at 0.5 µM (BV-2 cells): 76%
O=C([O-])CNC(=O)Nc1nc2ccc(Cl)cc2s1.[K+] [KHG26177, potassium 2-(3-(6-chlorobenzo[d]thiazole-2-yl)ureido)acetate]		237	viability at 0.5 µM (BV-2 cells): 62%
O=C([O-])CNC(=O)Nc1nc2c(Cl)cccc2s1.[K+] [KHG26178, potassium 2-(3-(4-chlorobenzo[d]thiazole-2-yl)ureido)acetate]		259	viability at 0.5 µM (BV-2 cells): 59%

Compound	viability at 50 µM (BV-2 cells; [1]) [%]	melting point [°C]	also measured
Cc1cc2nc(NC(=O)NCC(=O)[O-])sc2cc1C.[K+] [KHG26180, potassium 2-(3-(5,6-dimethylbenzo[d]thiazole-2-yl)ureido)acetate]		278	viability at 0.5 µM (BV-2 cells): 62%
Cc1ccc2nc(NC(=O)NCC(=O)[O-])sc2c1.[K+] [KHG26216, potassium 2-(3-(6-methylbenzo[d]thiazole-2-yl)ureido)acetate]		236	viability at 0.5 µM (BV-2 cells): 62%
Cc1cccc2sc(NC(=O)NCC(=O)[O-])nc12.[K+] [KHG26217, potassium 2-(3-(4-methylbenzo[d]thiazole-2-yl)ureido)acetate]		264.4	viability at 0.5 µM (BV-2 cells): 49%
O=C([O-])CCNC(=O)Nc1nc2ccccc2s1.[K+] [KHG26220, potassium 3-(3-benzo[d]thiazole-2-ylureido)propanoate]		249	viability at 0.5 µM (BV-2 cells): 33%
Cn1c(NC(=O)NCCC(=O)O)nc2ccccc21 [KHG26222, potassium 3-(3-(1-methyl-1H-benzo[d]imidazole-2-yl)ureido)propanoate]			viability at 0.5 µM (BV-2 cells): 33%
CCNC(=O)Nc1nc2ccccc2s1 [KHG26332, 1-(benzo[d]thiazole-2-yl)-3-ethylurea]			viability at 50 µM (BV-2 cells; BV-2, read-out: cell viability by MTT analysis, compound 50 μM for 24 hours after 50 μM beta-amyloid for 2 hours): 18%
COc1ccc2nc(NC(=O)NCC(=O)O)sc2c1 [KHG26346, 2-(3-(6-methoxybenzo[d]thiazole-2-yl)ureido)acetic acid]		198.3	
CCOC(=O)CNC(=O)Nc1nc2ccc(OCC)cc2s1 [KHG26347, ethyl 2-(3-(6-ethoxybenzo[d]thiazole-2-yl)ureido)acetate]		264	
CCOc1ccc2nc(NC(=O)NCC(=O)O)sc2c1 [KHG26348, 2-(3-(6-ethoxybenzo[d]thiazole-2-yl)ureido)acetic acid]		197	
CCOC(=O)CNC(=O)Nc1nc2ccc(Cl)cc2s1 [KHG26349, ethyl 2-(3-(6-chlorobenzo[d]thiazole-2-yl)ureido)acetate]		295	
O=C(O)CNC(=O)Nc1nc2ccc(Cl)cc2s1 [KHG26350, 2-(3-(6-chlorobenzo[d]thiazole-2-yl)ureido)acetic acid]		216	
CCOC(=O)CNC(=O)Nc1nc2c(Cl)cccc2s1 [KHG26351, ethyl 2-(3-(4-chlorobenzo[d]thiazole-2-yl)ureido)acetate]		213	
O=C(O)CNC(=O)Nc1nc2c(Cl)cccc2s1 [KHG26352, 2-(3-(4-chlorobenzo[d]thiazole-2-yl)ureido)acetic acid]		198	
CCOC(=O)CNC(=O)Nc1nc2cc(C)c(C)cc2s1 [KHG26353, ethyl 2-(3-(5,6-dimethylbenzo[d]thiazole-2-yl)ureido)acetate]		268	
Cc1cc2nc(NC(=O)NCC(=O)O)sc2cc1C [KHG26354, 2-(3-(5,6-dimethylbenzo[d]thiazole-2-yl)ureido)acetic acid]		198	
Cc1ccc2nc(NC(=O)NCC(=O)O)sc2c1 [KHG26355, 2-(3-(6-methylbenzo[d]thiazole-2-yl)ureido)acetic acid]		201	
Cc1cccc2sc(NC(=O)NCC(=O)O)nc12 [KHG26356, 2-(3-(4-methylbenzo[d]thiazole-2-yl)ureido)acetic acid]		203	
Cn1c(NC(=O)NCCC(=O)O)nc2ccccc21 [KHG26357, 3-(3-(1-methyl-1H-benzo[d]imidazole-2-yl)ureido)propane acid]		237	
Cn1c(NC(=O)NCCCC(=O)O)nc2ccccc21 [KHG26358, 4-(3-(1-methyl-1H-benzo[d]imidazole-2-yl)ureido)butanoic acid]		197	
